Laboratory results taken from patent publication US7998987B2, “Inhibitors of c-Met and uses thereof” (Vertex Pharmaceuticals Incorporated, priority 2005, dated 2011).

Molecular target: c-Met (Homo sapiens, UniProt P08581)
Assay: Ki determination for the inhibition of c-Met kinase activity (standard coupled enzyme system)
Assay type: biochemical
Details: coupled enzyme system, 200 μM ATP, 80 nM c-Met, 30° C.; read-out: c-Met Ki
Method: Ki Determination for the Inhibition of c-Met
Reactions were carried out in a solution containing 100 mM HEPES (pH 7.5), 10 mM MgCl2, 25 mM NaCl, 300 μM NADH, 1 mM DTT, and 1.5% DMSO. Final substrate concentrations in the assay were 200 μM ATP (Sigma Chemicals, St Louis, Mo.) and 10 μM polyGluTyr (Sigma Chemical Company, St. Louis). Reactions were carried out at 30° C. and 80 nM c-Met. Final concentrations of the components of the coupled enzyme system were 2.5 mM phosphoenolpyruvate, 300 μM NADH, 30 μg/ml pyruvate kinase and 10 μg/ml lactate dehydrogenase.
An assay stock buffer solution was prepared containing all of the reagents listed above with the exception of ATP and a test compound of the present invention. […] The reaction was initiated by the addition of 20 μL of ATP (final concentration 200 μM). Rates of reaction were obtained using a Molecular Devices Spectramax plate reader (Sunnyvale, Calif.) over 10 minutes at 30° C. The Ki values were determined from the rate data as a function of inhibitor concentration.

Chain of c-Met (P08581 25-1390): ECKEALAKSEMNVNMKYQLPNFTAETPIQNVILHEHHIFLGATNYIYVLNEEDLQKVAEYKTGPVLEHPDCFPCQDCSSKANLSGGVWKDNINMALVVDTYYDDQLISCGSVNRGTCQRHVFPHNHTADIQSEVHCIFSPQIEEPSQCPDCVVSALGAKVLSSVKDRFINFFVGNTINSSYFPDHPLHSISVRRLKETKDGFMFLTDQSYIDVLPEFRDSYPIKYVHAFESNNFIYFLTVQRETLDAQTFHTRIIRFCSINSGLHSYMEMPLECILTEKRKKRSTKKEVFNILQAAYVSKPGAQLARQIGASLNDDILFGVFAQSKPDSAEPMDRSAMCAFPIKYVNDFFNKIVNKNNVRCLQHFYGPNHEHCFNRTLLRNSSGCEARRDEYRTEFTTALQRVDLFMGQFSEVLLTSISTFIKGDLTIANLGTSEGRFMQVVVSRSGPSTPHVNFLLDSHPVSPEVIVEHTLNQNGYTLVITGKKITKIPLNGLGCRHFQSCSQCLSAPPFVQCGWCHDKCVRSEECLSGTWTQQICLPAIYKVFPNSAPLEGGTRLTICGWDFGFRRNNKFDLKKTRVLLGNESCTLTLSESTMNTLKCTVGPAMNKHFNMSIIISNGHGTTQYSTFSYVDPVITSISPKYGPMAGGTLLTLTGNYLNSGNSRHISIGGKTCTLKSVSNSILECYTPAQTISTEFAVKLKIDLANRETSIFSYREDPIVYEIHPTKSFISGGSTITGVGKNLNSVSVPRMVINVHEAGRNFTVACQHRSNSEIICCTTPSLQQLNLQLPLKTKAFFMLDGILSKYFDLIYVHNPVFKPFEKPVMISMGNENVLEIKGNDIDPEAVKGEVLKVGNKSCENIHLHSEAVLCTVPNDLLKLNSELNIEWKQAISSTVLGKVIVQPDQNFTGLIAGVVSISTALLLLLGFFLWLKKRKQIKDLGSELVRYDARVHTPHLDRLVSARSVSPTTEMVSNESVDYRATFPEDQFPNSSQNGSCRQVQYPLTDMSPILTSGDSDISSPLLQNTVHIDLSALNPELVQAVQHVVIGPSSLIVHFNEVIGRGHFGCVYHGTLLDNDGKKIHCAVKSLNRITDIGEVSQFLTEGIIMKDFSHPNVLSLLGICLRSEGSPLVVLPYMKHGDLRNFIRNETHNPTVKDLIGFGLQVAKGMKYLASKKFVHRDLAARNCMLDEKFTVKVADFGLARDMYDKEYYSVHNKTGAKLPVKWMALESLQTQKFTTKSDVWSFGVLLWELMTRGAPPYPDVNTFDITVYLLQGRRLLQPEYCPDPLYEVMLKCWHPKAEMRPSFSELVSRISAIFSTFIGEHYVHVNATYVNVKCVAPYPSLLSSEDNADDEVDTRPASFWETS

| Ki | SMILES |
| --- | --- |
| > 2 µM | Cc1nnc(Nc2ccc3nnc([C@@H](C)c4ccc(O)cc4)n3n2)s1 [Compound 500] |
| 0.1 to 2 µM | C[C@@H](c1ccc(O)cc1)c1nnc2ccc(Nc3ccnn3C)nn12 [Compound 505] |
| > 2 µM | Oc1c(Cc2nnc3ccc(Nc4cccc(Cl)c4)nn23)cnc2ncnn12 [Compound 516] |
| < 0.1 µM | Fc1ccc(Cc2nnc3ccc(Nc4cccc(Cl)c4)nn23)cc1 [Compound 402] |
| 0.1 to 2 µM | O=C1COc2ccc(C3=Nn4c(Cc5ccc(O)cc5)nnc4SC3)cc2N1 [Compound 535] |
| < 0.1 µM | Oc1ccc(Cc2nnc3n2N=C(c2ccc4c(c2)OCO4)CS3)cc1 [Compound 540] |
| > 2 µM | Clc1cccc(Nc2ccc3nnc(Cn4ccc5cccnc54)n3n2)c1 [Compound 462] |
| > 2 µM | Fc1ccc(SCc2nnc3ccc(Nc4cccc(Cl)c4)nn23)c(F)c1 [Compound 405] |
| > 2 µM | Fc1ccc(C2(c3nnc4ccc(Nc5cccc(Cl)c5)nn34)CCCC2)cc1 [Compound 416] |
| 0.1 to 2 µM | NC(=O)c1ccc(NCc2nnc3ccc(Nc4cccc(Cl)c4)nn23)cc1 [Compound 467] |
| > 2 µM | NC(=O)c1cc(Cc2nnc3ccc(Nc4cccc(Cl)c4)nn23)ccc1F [Compound 476] |
| > 2 µM | Clc1cccc(Nc2ccc3nnc(COc4ccc(Cl)nc4)n3n2)c1 [Compound 375] |
| 0.1 to 2 µM | COc1ccc(Cc2nnc3ccc(Nc4cccc(Cl)c4)nn23)cc1Br [Compound 437] |
| > 2 µM | Clc1cccc(Nc2ccc3nnc(Cn4cnc5ccccc54)n3n2)c1 [Compound 485] |
| < 0.1 µM | C[C@@H](c1ccc(O)cc1)c1nnc2ccc(NC3CCCC(C(F)(F)F)C3)nn12 (stereo partly drawn) [Compound 521] |
| < 0.1 µM | Oc1ccc(Cc2nnc3n2N=C(c2ccc4c(c2)OCCO4)CS3)cc1 [Compound 533] |
| > 2 µM | O=[N+]([O-])c1ncccc1OCc1nnc2ccc(Nc3cccc(Cl)c3)nn12 [Compound 408] |
| > 2 µM | CN(C)S(=O)(=O)Nc1cccc(Cc2nnc3ccc(Nc4cccc(Cl)c4)nn23)c1 [Compound 404] |
| 0.1 to 2 µM | c1ccc(C2=Nn3c(Cc4ccc5c(c4)OCO5)nnc3SC2)cc1 [Compound 523] |
| 0.1 to 2 µM | CCc1nnc(Nc2ccc3nnc([C@@H](C)c4ccc(O)cc4)n3n2)s1 [Compound 515] |
| > 2 µM | C=CCc1ccccc1OCc1nnc2ccc(Nc3cccc(Cl)c3)nn12 [Compound 383] |
| < 0.1 µM | Clc1cccc(Nc2ccc3nnc(CNc4cccc5ncccc45)n3n2)c1 [Compound 518] |
| 0.1 to 2 µM | COc1ccc(OCc2nnc3ccc(Nc4cccc(Cl)c4)nn23)c(N)c1 [Compound 434] |
| 0.1 to 2 µM | Oc1ccc(Cc2nnc3ccc(Nc4nc5ccc(Cl)cc5s4)nn23)cc1 [Compound 481] |
| > 2 µM | CC(=O)c1cn(Cc2nnc3ccc(Nc4cccc(Cl)c4)nn23)c2ncccc12 [Compound 480] |
| 0.1 to 2 µM | N#Cc1ccc(Cc2nnc3ccc(Nc4cccc(Cl)c4)nn23)cc1 [Compound 474] |
| > 2 µM | CC(Cn1cnc2ccccc21)c1nnc2ccc(Nc3cccc(Cl)c3)nn12 (stereo not drawn) [Compound 421] |

Second part, the compound before the results:

| SMILES | Ki |
| --- | --- |
| CCc1cccc(Nc2ccc3nnc(Cc4ccc(O)c(Cl)c4)n3n2)c1 [Compound 290] | 0.1 to 2 µM |
| COc1cccc(Nc2ccc3nnc(Cc4ccc(O)c(F)c4)n3n2)c1 [Compound 293] | 0.1 to 2 µM |
| CC[C@H](CO)Nc1ccc2nnc(Cc3ccc(O)cc3)n2n1 [Compound 312] | 0.1 to 2 µM |
| Cc1ccc(Cl)cc1Nc1ccc2nnc(Cc3ccc(O)cc3)n2n1 [Compound 358] | < 0.1 µM |
| CC(O)c1cccc(Nc2ccc3nnc(Cc4ccc(O)c(Cl)c4)n3n2)c1 (stereo not drawn) [Compound 299] | 0.1 to 2 µM |
| Clc1cccc(Nc2ccc3nnc(CCc4cccnc4)n3n2)c1 [Compound 368] | > 2 µM |
| Fc1ccc(NCc2nnc3ccc(Nc4cccc(Cl)c4)nn23)cc1F [Compound 341] | > 2 µM |
| Oc1ccc(Cc2nnc3ccc(Nc4cccc(C(F)(F)F)c4)nn23)cc1F [Compound 292] | < 0.1 µM |
| CC(=O)N1CCCC(Nc2ccc3nnc(Cc4ccc(O)cc4)n3n2)C1 (stereo not drawn) [Compound 326] | > 2 µM |
| Oc1ccc(NCc2nnc3ccc(Nc4cccc(Cl)c4)nn23)c2cccnc12 [Compound 352] | > 2 µM |
| Fc1ccc(NCc2nnc3ccc(Nc4cccc(Cl)c4)nn23)cc1 [Compound 343] | > 2 µM |
| Fc1ccc(Cl)cc1Nc1ccc2nnc(Cc3ccc4c(c3)OCO4)n2n1 [Compound 362] | < 0.1 µM |
| Cc1cc(C)cc(Nc2ccc3nnc(Cc4ccc(O)cc4)n3n2)c1 [Compound 295] | < 0.1 µM |
| OCCc1cccc(Nc2ccc3nnc(Cc4ccc(O)c(Cl)c4)n3n2)c1 [Compound 300] | 0.1 to 2 µM |
| Clc1cccc(Nc2ccc3nnc(COc4cccnc4)n3n2)c1 [Compound 371] | 0.1 to 2 µM |
| CCC(c1ccc(O)cc1)c1nnc2ccc(Nc3cccc(Cl)c3)nn12 (stereo not drawn) [Compound 367] | < 0.1 µM |
| COc1ccc(Cc2nnc3ccc(Nc4cc(C)cc(C)c4)nn23)cc1 [Compound 297] | 0.1 to 2 µM |
| C[C@H](CO)Nc1ccc2nnc(Cc3ccc(O)cc3)n2n1 [Compound 303] | 0.1 to 2 µM |
| CS(=O)(=O)c1ccc(Cc2nnc3ccc(Nc4cccc(Cl)c4)nn23)cc1 [Compound 364] | > 2 µM |
| COc1cccc(NCc2nnc3ccc(Nc4cccc(Cl)c4)nn23)c1 [Compound 336] | 0.1 to 2 µM |

Same assay, conditions: coupled enzyme system, 200 μM ATP, 10 μM polyGluTyr, 80 nM c-Met, 30° C.; read-out: c-Met Ki

| Ki | SMILES |
| --- | --- |
| 0.1 to 2 µM | Oc1cccc(Cc2nnc3sc(Nc4cc(F)cc(F)c4)nn23)c1 [Compound 124] |
| 0.1 to 2 µM | COc1ccc(Nc2nn3c(Cc4ccc5c(c4)OCO5)nnc3s2)cc1 [Compound 65] |
| 0.1 to 2 µM | COc1ccc(Cc2nnc3ccc(Nc4cccc(C)c4)nn23)cc1 [Compound 229] |
| 0.1 to 2 µM | COc1ccccc1Nc1nn2c(Cc3ccc4c(c3)OCO4)nnc2s1 [Compound 28] |
| < 0.1 µM | CC(C)Oc1cccc(Nc2nn3c([C@@H](C)c4ccc(O)cc4)nnc3s2)c1 [Compound 173] |
| < 0.1 µM | Oc1ccc(Cc2nnc3ccc(Nc4cc(Cl)cc(Cl)c4)nn23)cc1F [Compound 245] |
| 0.1 to 2 µM | COc1ccc(Cc2nnc3sc(-c4ccccn4)nn23)cc1 [Compound 20] |
| < 0.1 µM | Oc1ccc(Cc2nnc3sc(Nc4ccccc4Cl)nn23)cc1 [Compound 78] |
| 0.1 to 2 µM | CC(C)Nc1ccc2nnc(Cc3ccc(O)cc3)n2n1 [Compound 276] |
| < 0.1 µM | COc1ccc(Cc2nnc3ccc(Nc4cccc(F)c4)nn23)cc1 [Compound 285] |
| 0.1 to 2 µM | Oc1ccc(Cc2nnc3ccc(NCC4CCCO4)nn23)cc1 (stereo not drawn) [Compound 187] |
| 0.1 to 2 µM | Oc1cccc(Cc2nnc3sc(Nc4cccc(F)c4)nn23)c1 [Compound 122] |
| 0.1 to 2 µM | Oc1ccc(Cc2nnc3ccc(Cl)nn23)cc1 [Compound 174] |
| > 2 µM | Cc1cc(C)cc(Nc2ccc3nnc(Cc4ccncc4)n3n2)c1 [Compound 249] |
| > 2 µM | Oc1cccc(CCc2nnc3sc(Nc4cccc(F)c4F)nn23)c1 [Compound 121] |
| 0.1 to 2 µM | C[C@H](c1ccc(O)cc1)c1nnc2sc(Nc3ccc(Cl)cc3)nn12 [Compound 118] |
| > 2 µM | COc1ccc(Cc2nnc3sc(Cc4ccccc4)nn23)cc1 [Compound 21] |
| < 0.1 µM | C[C@@H](c1ccc(O)cc1)c1nnc2sc(Nc3cccc(F)c3)nn12 [Compound 105] |
| 0.1 to 2 µM | CC(C)CC(C)Nc1ccc2nnc(Cc3ccc(O)cc3)n2n1 (stereo not drawn) [Compound 279] |

| Ki | SMILES |
| --- | --- |
| < 0.1 µM | Oc1ccc(Cc2nnc3sc(Nc4cc(Cl)cc(Cl)c4)nn23)cc1 [Compound 50] |
| < 0.1 µM | CC(c1ccc(O)cc1)c1nnc2sc(Nc3cccc(F)c3)nn12 (stereo not drawn) [Compound 100] |
| < 0.1 µM | Clc1cccc(Nc2ccc3nnc(Cc4ccc5c(c4)OCO5)n3n2)c1 [Compound 239] |
| < 0.1 µM | CC(c1ccc(O)cc1)c1nnc2sc(Nc3ccc(Cl)cc3)nn12 (stereo not drawn) [Compound 53] |
| > 2 µM | NC(=O)[C@H]1CCC[C@H]1Nc1ccc2nnc(Cc3ccc(O)cc3)n2n1 [Compound 203] |
| < 0.1 µM | C[C@@H](c1ccc(O)cc1)c1nnc2sc(Nc3cccc(Cl)c3)nn12 [Compound 116] |
| 0.1 to 2 µM | CN(C)c1ccc(Nc2nn3c(Cc4ccc(O)cc4)nnc3s2)cc1 [Compound 74] |
| 0.1 to 2 µM | Cc1ccc(Nc2nn3c(Cc4ccc(O)cc4)nnc3s2)cc1Cl [Compound 73] |
| > 2 µM | CN(C)c1nn2c(Cc3ccc(O)cc3)nnc2s1 [Compound 41] |
| 0.1 to 2 µM | CNC(=O)c1cccc(Nc2ccc3nnc(Cc4ccc(O)cc4)n3n2)c1 [Compound 232] |
| 0.1 to 2 µM | COc1cccc(Nc2nn3c(Cc4ccc(O)c(F)c4)nnc3s2)c1 [Compound 35] |
| > 2 µM | CC(=O)Nc1cccc(NCc2nnc3ccc(-c4ccccc4)nn23)c1 [Compound 210] |
| 0.1 to 2 µM | Oc1ccc(Cc2nnc3ccc(NCC4CCCCC4)nn23)cc1 [Compound 195] |
| < 0.1 µM | Oc1ccc(Cc2nnc3ccc(Nc4cc(F)cc(F)c4)nn23)cc1 [Compound 250] |
| 0.1 to 2 µM | c1ccc(-c2ccc3nnc(Cc4ccc5c(c4)OCO5)n3n2)cc1 [Compound 207] |
| < 0.1 µM | CC(c1ccc(O)cc1)c1nnc2sc(Nc3cccc(F)c3F)nn12 (stereo not drawn) [Compound 101] |
| < 0.1 µM | Fc1cc(F)cc(Nc2ccc3nnc(Cc4ccc5c(c4)OCO5)n3n2)c1 [Compound 253] |
| < 0.1 µM | CC(c1ccc(O)cc1)c1nnc2sc(Nc3cccc(C(F)(F)F)c3)nn12 (stereo not drawn) [Compound 138] |
